Assay results as given in US20250304535A1, “KAT6 Inhibitors” (BeiGene Switzerland GmbH, priority 2024, published 2025).
pIC50: −log10 of the molar value.

Legend:
[1] = target: Recombinant human KAT6A protein (497-780) (Homo sapiens (Human), UniProt Q92794); experiment: KAT6A biochemical TR-FRET assay; details: histone H4 peptide 2000 nM, AcCoA 300 nM, enzyme 5 nM
Method: Enzymatic reactions of KAT6A and KAT6B were performed using Fluorescence Resonance Energy Transfer (TR-FRET) assay, which measures acetylation of a synthetic, biotinylated histone-H4 peptide by the KAT6A and KAT6B enzymes. Recombinant human KAT6A protein (497-780) were expressed in BL21 cell using an E. coli expression system. Recombinant human KAT6B protein (657-1069) was expressed in sf9 cell using a baculovirus expression system. […] Acetyl coenzyme A was purchased from Sigma-Aldrich (#A-2056).
Testing for the inhibition activities of various compounds disclosed herein was carried out at room temperature in assay buffer containing 100 mM Tris/HCl Ph7.8, 15 mM NaCl, 0.01% chicken egg white albumin, 1 mM DTT and 0.01% Tween-20. Compounds in DMSO were dispensed into wells of a black, 384-well plate (Corning 4514) using ECHO555 (Beckman). The final concentration ranges of the test compounds were 0.0625-1,000 nM, 0.625-10,000 nM, or 0.313-5,000 nM. Five μL of KAT6A or KAT6B enzyme solution were added to wells, and the plate was incubated for 1 hour at room temperature (rt). After incubation for 1 hour at rt, 5 μL H4 and AcCoA substrate solutions were added to the wells to initiate reaction, and the plate was incubated. After 2 hours reaction, 5 μL detection reagent were added to the wells, and the plate was incubated for 2 hours. After two hours incubation, detection reagent containing 5 nM Anti-histone H4 antibody (ABCAM #ab177790), 100 μM formic acid (sigma #06473-100ML), 0.1 test/μL streptavidin-XL665 (PerkinElmer #610SAXLG), 0.05 test/μL PAb anti-rabbit IgG-Eu (PerkinElmer μ61PARKLA) was added to the wells. TR-FRET was measured on a microplate reader (PHERAstar FSX, BMG labtech). […] In Table 6, I≤5 nM, 5 nM<II≤50 nM.

[2] = target: Recombinant human KAT6B protein (657-1069) (Homo sapiens (Human), UniProt Q8WYB5); experiment: KAT6B biochemical TR-FRET assay; details: histone H4 peptide 1000 nM, AcCoA 100 nM, enzyme 5 nM
Method: Enzymatic reactions of KAT6A and KAT6B were performed using Fluorescence Resonance Energy Transfer (TR-FRET) assay, which measures acetylation of a synthetic, biotinylated histone-H4 peptide by the KAT6A and KAT6B enzymes. Recombinant human KAT6A protein (497-780) were expressed in BL21 cell using an E. coli expression system. Recombinant human KAT6B protein (657-1069) was expressed in sf9 cell using a baculovirus expression system. Histone H4 peptide (SEQ ID NO: 1—[…]-GGK-Biotin), which was used as substrate, was synthesized by GL Biochem, Shanghai, China. Acetyl coenzyme A was purchased from Sigma-Aldrich (#A-2056).
Testing for the inhibition activities of various compounds disclosed herein was carried out at room temperature in assay buffer containing 100 mM Tris/HCl Ph7.8, 15 mM NaCl, 0.01% chicken egg white albumin, 1 mM DTT and 0.01% Tween-20. Compounds in DMSO were dispensed into wells of a black, 384-well plate (Corning 4514) using ECHO555 (Beckman). The final concentration ranges of the test compounds were 0.0625-1,000 nM, 0.625-10,000 nM, or 0.313-5,000 nM. Five μL of KAT6A or KAT6B enzyme solution were added to wells, and the plate was incubated for 1 hour at room temperature (rt). After incubation for 1 hour at rt, 5 μL H4 and AcCoA substrate solutions were added to the wells to initiate reaction, and the plate was incubated. After 2 hours reaction, 5 μL detection reagent were added to the wells, and the plate was incubated for 2 hours. After two hours incubation, detection reagent containing 5 nM Anti-histone H4 antibody (ABCAM #ab177790), 100 μM formic acid (sigma #06473-100ML), 0.1 test/μL streptavidin-XL665 (PerkinElmer #610SAXLG), 0.05 test/μL PAb anti-rabbit IgG-Eu (PerkinElmer μ61PARKLA) was added to the wells. TR-FRET was measured on a microplate reader (PHERAstar FSX, BMG labtech). The IC50s were calculated based on inhibition of enzyme activity in the presence of increasing concentrations of test compounds, and the results are shown in Table 6. In Table 6, I≤5 nM, 5 nM<II≤50 nM.

[3] = system: histone H3K23 acetylation in U-2 OS cells; experiment: Histone H3 lysine 23 acetylation assay in U-2 OS cells (high content analysis); type: cell-based; details: Homo sapiens, U2OS, 24 hrs exposure, H3K23ac level
Method: Assay B: Histone H3 lysine 23 Acetylation Assay
Compounds were tested for their capacity to suppress the histone H3K23 acetylation in the following high content analysis assay.
The cell line U-2 OS (ATCC HTB-96) was seeded at a density of 2000 cells per well in black 384 well cell culture/imaging microplates in 45 μl McCoy's 5A medium with […]. After overnight incubation in 37° C., 5% CO2 incubator, cells were then treated with a 9-point dilution series of compounds and a blank control group with medium containing 0.1% DMSO.
Following a 24 hrs exposure to the compounds, the cells were fixed with 4% immunohistochemical fixative for 20 mins at room temperature, washed with DPBS with 2% fetal bovine serum, and permed with Perm Buffer III for 30 min on ice, washed with DPBS with 2% fetal bovine serum. Then the cells were blocked with Odyssey blocking buffer containing 0.1% Tween 20. 20 ul Anti-Histone H3 (acetyl K23) antibody (Abcam, ab177275) in odyssey blocking buffer containing 0.1% Tween20 was added and incubated overnight at 4° C. After incubation, the cells were washed for 3 times and a secondary antibody Anti-rabbit IgG (H+L), F(ab′)2 Fragment (Alexa Fluor® 647 Conjugate) (CST, 4414S) were added into cells for one hour. The cells were washed and 1 ug/ml DAPI (Thermo, 62248) were added for 10 min. Then cells were washed and read on the PerkinElmer Operetta CLS high content analysis system. The nuclei were identified by DAPI and H3K23ac level was calculated from the Alexa Fluor 647 intensity in the nuclei. Inhibition rate of H3K23ac was calculated as the mean intensity of cells per well relative to blank controls on the same plate.

Recombinant human KAT6A protein (497-780), sequence (Q92794 497-780): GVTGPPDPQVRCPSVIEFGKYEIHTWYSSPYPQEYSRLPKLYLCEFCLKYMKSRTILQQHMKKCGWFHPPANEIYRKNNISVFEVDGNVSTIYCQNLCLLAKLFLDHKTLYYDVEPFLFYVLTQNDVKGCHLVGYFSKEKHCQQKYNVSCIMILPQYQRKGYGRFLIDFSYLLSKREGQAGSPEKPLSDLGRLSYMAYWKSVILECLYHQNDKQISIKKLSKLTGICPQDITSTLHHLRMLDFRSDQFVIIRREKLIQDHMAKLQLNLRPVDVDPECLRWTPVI
Recombinant human KAT6B protein (657-1069), sequence (Q8WYB5 657-1069): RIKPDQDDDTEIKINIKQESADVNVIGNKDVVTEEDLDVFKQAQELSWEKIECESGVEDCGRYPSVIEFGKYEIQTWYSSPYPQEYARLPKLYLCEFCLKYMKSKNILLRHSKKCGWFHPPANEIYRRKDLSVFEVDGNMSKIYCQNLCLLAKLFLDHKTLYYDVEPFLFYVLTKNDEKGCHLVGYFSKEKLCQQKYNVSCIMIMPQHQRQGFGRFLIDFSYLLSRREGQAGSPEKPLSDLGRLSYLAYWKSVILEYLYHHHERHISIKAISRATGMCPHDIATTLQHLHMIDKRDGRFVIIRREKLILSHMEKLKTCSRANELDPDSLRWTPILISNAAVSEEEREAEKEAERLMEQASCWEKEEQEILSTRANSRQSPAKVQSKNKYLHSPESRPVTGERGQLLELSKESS

SMILES | pIC50 [1] | pIC50 [2] | IC50 [3] [nM]
C=Cc1cc(C(=O)NS(=O)(=O)c2cc(C(C)(C)C)ccc2OC)ccc1Cn1cccn1 [Example C4, 4-((1H-pyrazol-1-yl)methyl)-N-((5-(tert-butyl)-2-methoxyphenyl)sulfonyl)-3-vinylbenzamide] | ≥ 8.30 | ≥ 8.30 | ≤ 10
COc1ccc(C(C)(C)C)cc1S(=O)(=O)NC(=O)c1ccc(Cn2cccn2)c(-c2ccco2)c1 [Example C5, 4-((1H-pyrazol-1-yl)methyl)-N-((5-(tert-butyl)-2-methoxyphenyl)sulfonyl)-3-(furan-2-yl)benzamide] | ≥ 8.30 | ≥ 8.30 | ≤ 10
CCc1cc(C(=O)NS(=O)(=O)c2cc(C(C)(C)C)ccc2OC)ccc1Cn1cccn1 [Example C6, 4-((1H-pyrazol-1-yl)methyl)-N-((5-(tert-butyl)-2-methoxyphenyl)sulfonyl)-3-ethylbenzamide] | ≥ 8.30 | ≥ 8.30 | ≤ 10
C#Cc1cc(C(=O)NS(=O)(=O)c2cc3c(cc2OC)CCC3)ccc1Cn1cccn1 [Example C9, 4-((1H-pyrazol-1-yl)methyl)-3-ethynyl-N-((6-methoxy-2,3-dihydro-1H-inden-5-yl)sulfonyl)benzamide] | 7.30 to 8.30 | 7.30 to 8.30 | 10 to 100
COc1ccc(C(C)(C)C)cc1S(=O)(=O)NC(=O)c1cc(Br)c(Cn2cccn2)cc1F [Example C10, 4-((1H-pyrazol-1-yl)methyl)-5-bromo-N-((5-(tert-butyl)-2-methoxyphenyl)sulfonyl)-2-fluorobenzamide] | ≥ 8.30 | ≥ 8.30 | ≤ 10
COCc1cc(C(=O)NS(=O)(=O)c2cc(C(C)(C)C)ccc2OC)ccc1Cn1cccn1 [Example C12, 4-((1H-pyrazol-1-yl)methyl)-N-((5-(tert-butyl)-2-methoxyphenyl)sulfonyl)-3-(methoxymethyl)benzamide] | 7.30 to 8.30 | 7.30 to 8.30 | 10 to 100
COc1ccc(C(C)(C)C)cc1S(=O)(=O)NC(=O)c1ccc(Cn2cccn2)c(N(C)C)c1 [Example C13, 4-((1H-pyrazol-1-yl)methyl)-N-((5-(tert-butyl)-2-methoxyphenyl)sulfonyl)-3-(dimethylamino)benzamide] | ≥ 8.30 | ≥ 8.30 | ≤ 10
C=Cc1cc(C(=O)NS(=O)(=O)c2nc(C(C)(C)C)ccc2OC)ccc1Cn1cccn1 [Example C16, 4-((1H-pyrazol-1-yl)methyl)-N-((6-(tert-butyl)-3-methoxypyridin-2-yl)sulfonyl)-3-vinylbenzamide] | ≥ 8.30 | ≥ 8.30 | ≤ 10
COc1ccc(N2CCC(OC)CC2)cc1S(=O)(=O)NC(=O)c1ccc(Cn2cccn2)c(C2CC2)c1 [Example C17, 4-((1H-pyrazol-1-yl)methyl)-3-cyclopropyl-N-((2-methoxy-5-(4-methoxypiperidin-1-yl)phenyl)sulfonyl)benzamide] | ≥ 8.30 | ≥ 8.30 | 10 to 100
COc1cccc(OC)c1S(=O)(=O)NC(=O)c1ccc(Cn2cccn2)c(OC)n1 [Example C69, 5-((1H-pyrazol-1-yl)methyl)-N-((2,6-dimethoxyphenyl)sulfonyl)-6-methoxy-picolinamide] |  | ≥ 8.30 | ≤ 10

Next, values leading:

pIC50 [1] | pIC50 [2] | IC50 [3] [nM] | SMILES
≥ 8.30 | ≥ 8.30 | ≤ 10 | COc1ccc(C(C)(C)C)cc1S(=O)(=O)NC(=O)c1ccc(Cn2cccn2)c(I)c1 [Example C1, 4-((1H-pyrazol-1-yl)methyl)-N-((5-(tert-butyl)-2-methoxyphenyl)sulfonyl)-3-iodobenzamide]
≥ 8.30 | ≥ 8.30 | ≤ 10 | COc1ccc(C(C)(C)C)cc1S(=O)(=O)NC(=O)c1ccc(Cn2cccn2)c(C2CC2)c1 [Example C2, 4-((1H-pyrazol-1-yl)methyl)-N-((5-(tert-butyl)-2-methoxyphenyl)sulfonyl)-3-cyclopropylbenzamide]
≥ 8.30 | ≥ 8.30 | ≤ 10 | COc1ccc(C(C)(C)C)cc1S(=O)(=O)NC(=O)c1ccc(Cn2cccn2)c(C)c1 [Example C3, 4-((1H-pyrazol-1-yl)methyl)-N-((5-(tert-butyl)-2-methoxyphenyl)sulfonyl)-3-methylbenzamide]
≥ 8.30 | ≥ 8.30 | ≤ 10 | COc1cc(C(=O)NS(=O)(=O)c2cc(C(C)(C)C)ccc2OC)ccc1Cn1cccn1 [Example C7, 4-((1H-pyrazol-1-yl)methyl)-N-((5-(tert-butyl)-2-methoxyphenyl)sulfonyl)-3-methoxybenzamide]
≥ 8.30 | ≥ 8.30 | ≤ 10 | COc1ccc(C(C)(C)C)cc1S(=O)(=O)NC(=O)c1ccc(Cn2cccn2)c(C2CC2)n1 [Example C8, 5-((1H-pyrazol-1-yl)methyl)-N-((5-(tert-butyl)-2-methoxyphenyl)sulfonyl)-6-cyclopropyl-picolinamide]
≥ 8.30 | ≥ 8.30 | ≤ 10 | COc1ccc(C(C)(C)C)cc1S(=O)(=O)NC(=O)c1ccc(Cn2cccn2)c(Br)c1F [Example C11, 4-((1H-pyrazol-1-yl)methyl)-3-bromo-N-((5-(tert-butyl)-2-methoxyphenyl)sulfonyl)-2-fluorobenzamide]
≥ 8.30 | ≥ 8.30 | ≤ 10 | COc1ccc(C(C)(C)C)cc1S(=O)(=O)NC(=O)c1ccc(Cn2cccn2)c(Br)c1 [Example C14, 4-((1H-pyrazol-1-yl)methyl)-3-bromo-N-((5-(tert-butyl)-2-methoxyphenyl)sulfonyl)benzamide]
≥ 8.30 | ≥ 8.30 | ≤ 10 | C#Cc1cc(C(=O)NS(=O)(=O)c2cc(C(C)(C)C)ccc2OC)ccc1Cn1cccn1 [Example C15, 4-((1H-pyrazol-1-yl)methyl)-N-((5-(tert-butyl)-2-methoxyphenyl)sulfonyl)-3-ethynylbenzamide]
